Test system: 282377-053-R-J1-PDC complex spheroid viability
Test: Anticancer human tumor 282377-053-R-J1-PDC patient-derived colon adenocarcinoma cell line growth inhibition [POLQ]
Settings: for IC50: curve of first compound; for viability, T/C: stronger effect = lower value
How it was run: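 PDC + HUVEC + MSC complex spheroids; POLQ inhibitors ± partner drugs; top conc. at/near clinical Cmax, else 10 microM (SN-38 1 microM), half-log dilutions; 37 degrees C, 5% CO2.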

[1] = second compound 0.0316 µM, first compound 0.0316 µM
[2] = second compound 0.0316 µM, first compound 0.1 µM
[3] = second compound 0.0316 µM, first compound 0.316 µM
[4] = second compound 0.0316 µM, first compound 1 µM
[5] = second compound 0.0316 µM, first compound 3.16 µM
[6] = second compound 0.0316 µM, first compound 10 µM
[7] = second compound 0.1 µM, first compound 0.0316 µM
[8] = second compound 0.1 µM, first compound 0.1 µM
[9] = second compound 0.1 µM, first compound 0.316 µM
[10] = second compound 0.1 µM, first compound 1 µM
[11] = second compound 0.1 µM, first compound 3.16 µM
[12] = second compound 0.1 µM, first compound 10 µM
[13] = second compound 0.316 µM, first compound 0.0316 µM
[14] = second compound 0.316 µM, first compound 0.1 µM
[15] = second compound 0.316 µM, first compound 0.316 µM
[16] = second compound 0.316 µM, first compound 1 µM
[17] = second compound 0.316 µM, first compound 3.16 µM
[18] = second compound 0.316 µM, first compound 10 µM
[19] = second compound 1 µM, first compound 0.0316 µM
[20] = second compound 1 µM, first compound 0.1 µM
[21] = second compound 1 µM, first compound 0.316 µM
[22] = second compound 1 µM, first compound 1 µM
[23] = second compound 1 µM, first compound 3.16 µM
[24] = second compound 1 µM, first compound 10 µM
[25] = second compound 3.16 µM, first compound 0.0316 µM
[26] = second compound 3.16 µM, first compound 0.1 µM
[27] = second compound 3.16 µM, first compound 0.316 µM
[28] = second compound 3.16 µM, first compound 1 µM
[29] = second compound 3.16 µM, first compound 3.16 µM
[30] = second compound 3.16 µM, first compound 10 µM
[31] = second compound 10 µM, first compound 0.0316 µM
[32] = second compound 10 µM, first compound 0.1 µM
[33] = second compound 10 µM, first compound 0.316 µM
[34] = second compound 10 µM, first compound 1 µM
[35] = second compound 10 µM, first compound 3.16 µM
[36] = second compound 10 µM, first compound 10 µM
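Further: spheroids exposed to compounds for seven days.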
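Wherever viability, T/C is given: 100% = DMSO vehicle control viability.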

With `CCc1cc2c(N3CCc4c(cc(Cn5ccnc5)cc4-c4cn(C)nc4C(F)(F)F)C3=O)ccnc2c(OC)n1` + COC1C(OC(N)=O)C(O)C(Oc2ccc3c(O)c(NC(=O)c4ccc(O)c(CC=C(C)C)c4)c(=O)oc3c2C)OC1(C)C the IC50 (second compound 0.0316 µM) was greater than 10 µM, the IC50 (second compound 0.1 µM) was greater than 10 µM and the IC50 (second compound 0.316 µM) was greater than 10 µM. The IC50 (second compound 1 µM) was greater than 10 µM, the IC50 (second compound 3.16 µM) was greater than 10 µM and the IC50 (second compound 10 µM) was greater than 10 µM. For the same compound, the viability, T/C [1] was 114%, the viability, T/C [2] was 132% and the viability, T/C [3] was 139%. For the same compound, the viability, T/C [4] was 144%, the viability, T/C [5] was 135% and the viability, T/C [6] was 72.3%. The viability, T/C [7] was 120%, the viability, T/C [8] was 153% and the viability, T/C [9] was 140%. For the same compound, the viability, T/C [10] was 146%, the viability, T/C [11] was 118% and the viability, T/C [12] was 90.6%. For the same compound, the viability, T/C [13] was 147%, the viability, T/C [14] was 110% and the viability, T/C [15] was 132%. For the same compound, the viability, T/C [16] was 130%, the viability, T/C [17] was 127% and the viability, T/C [18] was 78%. For the same compound, the viability, T/C [19] was 124%, the viability, T/C [20] was 109% and the viability, T/C [21] was 123%. For the same compound, the viability, T/C [22] was 134%, the viability, T/C [23] was 132% and the viability, T/C [24] was 95.4%. It also gave a viability, T/C [25] of 124%, a viability, T/C [26] of 124% and a viability, T/C [27] of 150%. It also gave a viability, T/C [28] of 145%, a viability, T/C [29] of 118% and a viability, T/C [30] of 86.9%. The viability, T/C [31] was 115%, the viability, T/C [32] was 127% and the viability, T/C [33] was 144%. For the same compound, the viability, T/C [34] was 161%, the viability, T/C [35] was 113% and the viability, T/C [36] was 92.9%.

`COc1cc2cc(C(=O)CCC(=O)O)sc2cc1OC` + COC1C(OC(N)=O)C(O)C(Oc2ccc3c(O)c(NC(=O)c4ccc(O)c(CC=C(C)C)c4)c(=O)oc3c2C)OC1(C)C showed an IC50 (second compound 0.0316 µM) greater than 10 µM, an IC50 (second compound 0.1 µM) greater than 10 µM and an IC50 (second compound 0.316 µM) greater than 10 µM. For the same compound, the IC50 (second compound 1 µM) was greater than 10 µM, the IC50 (second compound 3.16 µM) was greater than 10 µM and the IC50 (second compound 10 µM) was greater than 10 µM. The viability, T/C [1] was 118%, the viability, T/C [2] was 103% and the viability, T/C [3] was 128%. For the same compound, the viability, T/C [4] was 104%, the viability, T/C [5] was 113% and the viability, T/C [6] was 99.3%. For the same compound, the viability, T/C [7] was 105%, the viability, T/C [8] was 105% and the viability, T/C [9] was 116%. For the same compound, the viability, T/C [10] was 107%, the viability, T/C [11] was 99.1% and the viability, T/C [12] was 88.3%. It also gave a viability, T/C [13] of 121%, a viability, T/C [14] of 102% and a viability, T/C [15] of 83.1%. The viability, T/C [16] was 105%, the viability, T/C [17] was 86.9% and the viability, T/C [18] was 93.2%. For the same compound, the viability, T/C [19] was 109%, the viability, T/C [20] was 97.1% and the viability, T/C [21] was 109%. The viability, T/C [22] was 97.1%, the viability, T/C [23] was 114% and the viability, T/C [24] was 86.6%. For the same compound, the viability, T/C [25] was 111%, the viability, T/C [26] was 87.3% and the viability, T/C [27] was 119%. The viability, T/C [28] was 99.5%, the viability, T/C [29] was 86.7% and the viability, T/C [30] was 115%. For the same compound, the viability, T/C [31] was 99%, the viability, T/C [32] was 93.7% and the viability, T/C [33] was 117%. For the same compound, the viability, T/C [34] was 115%, the viability, T/C [35] was 105% and the viability, T/C [36] was 123%.

Work on `COc1ccc([C@@H](O)c2cc(-c3ncnc4cc(N5CCOCC5)ccc34)c(F)cc2Cl)nn1` + COC1C(OC(N)=O)C(O)C(Oc2ccc3c(O)c(NC(=O)c4ccc(O)c(CC=C(C)C)c4)c(=O)oc3c2C)OC1(C)C yielded an IC50 (second compound 0.0316 µM) greater than 10 µM, an IC50 (second compound 0.1 µM) greater than 10 µM and an IC50 (second compound 0.316 µM) greater than 10 µM. For the same compound, the IC50 (second compound 1 µM) was greater than 10 µM, the IC50 (second compound 3.16 µM) was greater than 10 µM and the IC50 (second compound 10 µM) was greater than 10 µM. It also gave a viability, T/C [1] of 109%, a viability, T/C [2] of 105% and a viability, T/C [3] of 104%. For the same compound, the viability, T/C [4] was 85.4%, the viability, T/C [5] was 85.4% and the viability, T/C [6] was 78.5%. It also gave a viability, T/C [7] of 108%, a viability, T/C [8] of 106% and a viability, T/C [9] of 95.1%. It also gave a viability, T/C [10] of 73.7%, a viability, T/C [11] of 70.1% and a viability, T/C [12] of 62.3%. The viability, T/C [13] was 96.5%, the viability, T/C [14] was 89.3% and the viability, T/C [15] was 78.2%. The viability, T/C [16] was 88.1%, the viability, T/C [17] was 77.5% and the viability, T/C [18] was 69.2%. It also gave a viability, T/C [19] of 93.2%, a viability, T/C [20] of 90.9% and a viability, T/C [21] of 101%. It also gave a viability, T/C [22] of 87.2%, a viability, T/C [23] of 95% and a viability, T/C [24] of 66.2%. The viability, T/C [25] was 94%, the viability, T/C [26] was 91.8% and the viability, T/C [27] was 90.7%. For the same compound, the viability, T/C [28] was 89.4%, the viability, T/C [29] was 79.3% and the viability, T/C [30] was 57.6%. The viability, T/C [31] was 102%, the viability, T/C [32] was 91.6% and the viability, T/C [33] was 91.7%. For the same compound, the viability, T/C [34] was 92.2%, the viability, T/C [35] was 60.1% and the viability, T/C [36] was 75.7%.

`O=C(Nc1ccc(O)c(NS(=O)(=O)c2ccc(F)cc2)c1)c1ccc(-c2ccccc2)cc1` + COC1C(OC(N)=O)C(O)C(Oc2ccc3c(O)c(NC(=O)c4ccc(O)c(CC=C(C)C)c4)c(=O)oc3c2C)OC1(C)C showed an IC50 (second compound 0.0316 µM) greater than 10 µM, an IC50 (second compound 0.1 µM) greater than 10 µM and an IC50 (second compound 0.316 µM) greater than 10 µM. For the same compound, the IC50 (second compound 1 µM) was greater than 10 µM, the IC50 (second compound 3.16 µM) was greater than 10 µM and the IC50 (second compound 10 µM) was greater than 10 µM. For the same compound, the viability, T/C [1] was 120%, the viability, T/C [2] was 117% and the viability, T/C [3] was 109%. It also gave a viability, T/C [4] of 113%, a viability, T/C [5] of 133% and a viability, T/C [6] of 94.5%. For the same compound, the viability, T/C [7] was 122%, the viability, T/C [8] was 125% and the viability, T/C [9] was 117%. It also gave a viability, T/C [10] of 127%, a viability, T/C [11] of 127% and a viability, T/C [12] of 97%. It also gave a viability, T/C [13] of 115%, a viability, T/C [14] of 108% and a viability, T/C [15] of 100%. For the same compound, the viability, T/C [16] was 108%, the viability, T/C [17] was 112% and the viability, T/C [18] was 94.5%. It also gave a viability, T/C [19] of 116%, a viability, T/C [20] of 99.6% and a viability, T/C [21] of 118%. It also gave a viability, T/C [22] of 115%, a viability, T/C [23] of 120% and a viability, T/C [24] of 122%. It also gave a viability, T/C [25] of 98.2%, a viability, T/C [26] of 118% and a viability, T/C [27] of 106%. The viability, T/C [28] was 114%, the viability, T/C [29] was 99.8% and the viability, T/C [30] was 104%. For the same compound, the viability, T/C [31] was 127%, the viability, T/C [32] was 95.3% and the viability, T/C [33] was 94.9%. The viability, T/C [34] was 127%, the viability, T/C [35] was 104% and the viability, T/C [36] was 93.5%.
